Measured values from patent US7253158B2, “Sulfonamides” (Hoffmann-La Roche Inc., priority 2004, dated 2007).

Biological target: T1, γ-secretase (Homo sapiens, UniProt P49768)
T1 construct: uses a HEK293 membrane fraction as a source of γ-secretase; endogenous in cells; host or cells: HEK293 (microsomal membrane fraction, solubilised in 0.25% CHAPSO)
Test: in vitro γ-secretase assay (HEK293 membrane fraction, recombinant APP substrate, Abeta ELISA)
Type: biochemical
Conditions: γ-secretase inhibition
Text: Description of γ-Secretase Assay
The activity of test compounds can be evaluated in assays which measure the proteolytic cleavage of suitable substrates by γ-secretase activity. These can be cellular assays where e.g., a substrate of the γ-secretase is fused in its cytoplasmic domain to a transcription factor. Cells are transfected with this fusion gene and a reporter gene, e.g., firefly luciferase, which expression is enhanced by the transcription factor. Cleavage of the fused substrate by γ-secretase will lead to expression of the reporter gene which can be monitored in appropriate assays. The γ-secretase activity can also be determined in cell-free in vitro asays where e.g., a cell lysate containing the γ-secretase complex is incubated with a suitable APP-derived substrate which is cleaved to the Abeta peptides. The amount of produced peptides can be determined with specific ELISA assays. Cell lines of neuronal origin secrete Abeta peptides which can be measured with the specific ELISA assay. Treatment with compounds which inhibit γ-secretase leads to a reduction of secreted Abeta thus providing a measure of inhibition.
The in vitro assay of γ-secretase activity uses a HEK293 membrane fraction as a source of γ-secretase and a recombinant APP substrate. Latter consist of the C-terminal 100 amino acids of human APP fused to a 6× Histidin tail for purification which is expressed in E. coli in a regulatable expression vector, e.g. pEt15. This recombinant protein corresponds to the truncated APP fragment which results after […] of the extracellular domain and which constitutes the γ-secretase substrate. […] Hek293 cells are mechanically disrupted and the microsomal fraction is isolated by differential centrifugation.

Structure (SMILES)	IC50 (table head prints none) [nM]	IC50 [nM]
COc1ccc(CN(C2CCCCNC2=O)S(=O)(=O)c2ccc(Br)cc2)cc1F (racemic) [Example 28, rac-4-Bromo-N-(3-fluoro-4-methoxy-benzyl)-N-(2-oxo-azepan-3-yl)-benzenesulfonamide]	150	–
CC(C)C1CCNC(=O)C(N(Cc2ccc(C(=O)NC3CC3)cc2)S(=O)(=O)c2ccc(Cl)cc2)C1 (racemic) [Example 43, rac-4-{[(4-Chloro-benzenesulfonyl)-(5-isopropyl-2-oxo-azepan-3-yl)-amino]-methyl}-N-cyclopropyl-benzamide]	30	–
COC(=O)c1ccc(CN(C2CCCCNC2=O)S(=O)(=O)c2ccc(Cl)cc2)cc1 (racemic) [Example 57, rac-4-{[(4-Chloro-benzenesulfonyl)-(2-oxo-azepan-3-yl)-amino]-methyl}-benzoic acid methyl ester]	130	–
O=C(NC1CC1)c1ccc(CN(C2CCCCNC2=O)S(=O)(=O)c2ccc(Cl)cc2)cc1 (racemic) [Example 75, rac-4-{[(4-Chloro-benzenesulfonyl)-(2-oxo-azepan-3-yl)-amino]-methyl}-N-cyclopropyl-benzamide]	190	–
COC(=O)c1ccc(CN(C2CC(C)(C)CCNC2=O)S(=O)(=O)c2ccc(Cl)cc2)cc1 (racemic) [Example 138, Rac-4-{[(4-Chloro-benzenesulfonyl)-(5,5-dimethyl-2-oxo-azepan-3-yl)-amino]-methyl}-benzoic acid methyl ester]	10	–
CC1(C)CCNC(=O)C(N(Cc2ccc(C(=O)NCCF)cc2)S(=O)(=O)c2ccc(Cl)cc2)C1 (racemic) [Example 140, rac-4-{[(4-Chloro-benzenesulfonyl)-(5,5-dimethyl-2-oxo-azepan-3-yl)-amino]-methyl}-N-(2-fluoro-ethyl)-benzamide]	20	–
CC1(C)CCNC(=O)C(N(Cc2ccc(C(=O)NCC(F)(F)F)cc2)S(=O)(=O)c2ccc(Cl)cc2)C1 (racemic) [Example 141, rac-4-{[(4-Chloro-benzenesulfonyl)-(5,5-dimethyl-2-oxo-azepan-3-yl)-amino]-methyl}-N-(2,2,2-trifluoro-ethyl)-benzamide]	20	–
CC1(C)CCNC(=O)C(N(Cc2ccc(C(=O)N[C@@H]3C[C@@H]3F)cc2)S(=O)(=O)c2ccc(Cl)cc2)C1 (mixture of isomers) [Example 142, rac-4-{[(4-Chloro-benzenesulfonyl)-(5,5-dimethyl-2-oxo-azepan-3-yl)-amino]-methyl}-N-((1R,2S)-2-fluoro-cyclopropyl)-benzamide]	20	–
CC1(C)CCNC(=O)C(N(Cc2ccc(C(=O)NCCO)cc2)S(=O)(=O)c2ccc(Cl)cc2)C1 (racemic) [Example 143, rac-4-{[(4-Chloro-benzenesulfonyl)-(5,5-dimethyl-2-oxo-azepan-3-yl)-amino]-methyl}-N-(2-hydroxy-ethyl)-benzamide]	40	–
CC1(C)CCNC(=O)C(N(Cc2ccc(C(=O)NC3CCCC3)cc2)S(=O)(=O)c2ccc(Cl)cc2)C1 (racemic) [Example 144, rac-4-{[(4-Chloro-benzenesulfonyl)-(5,5-dimethyl-2-oxo-azepan-3-yl)-amino]-methyl}-N-cyclopentyl-benzamide]	50	–
CNC(=O)c1ccc(CN(C2CC(C)(C)CCNC2=O)S(=O)(=O)c2ccc(Cl)cc2)cc1 (racemic) [Example 145, rac-4-{[(4-Chloro-benzenesulfonyl)-(5,5-dimethyl-2-oxo-azepan-3-yl)-amino]-methyl}-N-methyl-benzamide]	10	–
CC1(C)CCNC(=O)C(N(Cc2ccc(C(N)=O)cc2)S(=O)(=O)c2ccc(Cl)cc2)C1 (racemic) [Example 146, rac-4-{[(4-Chloro-benzenesulfonyl)-(5,5-dimethyl-2-oxo-azepan-3-yl)-amino]-methyl}-benzamide]	20	–
CC1(C)CCNC(=O)C(N(Cc2ccc(C(=O)NCc3ccccc3)cc2)S(=O)(=O)c2ccc(Cl)cc2)C1 (racemic) [Example 147, rac-N-Benzyl-4-{[(4-chloro-benzenesulfonyl)-(5,5-dimethyl-2-oxo-azepan-3-yl)-amino]-methyl}-benzamide]	20	–
COC(=O)CNC(=O)c1ccc(CN(C2CC(C)(C)CCNC2=O)S(=O)(=O)c2ccc(Cl)cc2)cc1 (racemic) [Example 148, rac-(4-{[(4-Chloro-benzenesulfonyl)-(5,5-dimethyl-2-oxo-azepan-3-yl)-amino]-methyl}-benzoylamino)-acetic acid methyl ester]	20	–
CC1(C)CCNC(=O)C(N(Cc2ccc(C(=O)NCCN3CCOCC3)cc2)S(=O)(=O)c2ccc(Cl)cc2)C1 (racemic) [Example 149, rac-4-{[(4-Chloro-benzenesulfonyl)-(5,5-dimethyl-2-oxo-azepan-3-yl)-amino]-methyl}-N-(2-morpholin-4-yl-ethyl)-benzamide]	150	–
CC1(C)CCNC(=O)C(N(Cc2ccc(-c3nn[nH]n3)cc2)S(=O)(=O)c2ccc(Cl)cc2)C1 (racemic) [Example 150, rac-4-Chloro-N-(5,5-dimethyl-2-oxo-azepan-3-yl)-N-[4-(2H-tetrazol-5-yl)-benzyl]-benzenesulfonamide]	100	–
CC(=O)Nc1ccc(CN(C2CC(C)(C)CCNC2=O)S(=O)(=O)c2ccc(Cl)cc2)cc1 (racemic) [Example 152, rac-N-(4-{[(4-Chloro-benzenesulfonyl)-(5,5-dimethyl-2-oxo-azepan-3-yl)-amino]-methyl}-phenyl)-acetamide]	20	–
CCOC(=O)CC(=O)Nc1ccc(CN(C2CCCCNC2=O)S(=O)(=O)c2ccc(Cl)cc2)cc1 (racemic) [Example 165, Rac-N-(4-{[(4-Chloro-benzenesulfonyl)-(2-oxo-azepan-3-yl)-amino]-methyl}-phenyl)-malonamic acid ethyl ester]	270	–
O=C1NCCCCC1N(Cc1ccc(C(F)F)cc1)S(=O)(=O)c1ccc(Cl)cc1 (racemic) [Example 172, Rac-4-Chloro-N-(4-difluoromethyl-benzyl)-N-(2-oxo-azepan-3-yl)-benzenesulfonamide]	230	–
COC(=O)c1ccc(CN(C2CCCCNC2=O)S(=O)(=O)c2ccc(Cl)cc2)c(F)c1 (racemic) [Example 203, rac-4-{[(4-Chloro-benzenesulfonyl)-(2-oxo-azepan-3-yl)-amino]-methyl}-3-fluoro-benzoic acid methyl ester]	–	190
NC(=O)c1ccc(CN([C@@H]2CCCCNC2=O)S(=O)(=O)c2ccc(Cl)cc2)cc1 [Example 2, 4-{[(4-Chloro-benzenesulfonyl)-((R)-2-oxo-azepan-3-yl)-amino]-methyl}-benzamide]	150	–
CC(C)C1CCNC(=O)C(N(Cc2ccc(C(N)=O)cc2)S(=O)(=O)c2ccc(Cl)cc2)C1 (stereo not drawn) [Example 4, 4-{[(4-Chloro-benzenesulfonyl)-(5-isopropyl-2-oxo-azepan-3-yl)-amino]-methyl}-benzamide]	260	–
COC(=O)c1ccc(CN([C@@H]2CCCCNC2=O)S(=O)(=O)c2ccc(Cl)cc2)c(F)c1 [Example 34, 4-{[(4-Chloro-benzenesulfonyl)-((R)-2-oxo-azepan-3-yl)-amino]-methyl}-3-fluoro-benzoic acid methyl ester]	140	–
CCOC(=O)c1ccc(CN([C@@H]2CCCCNC2=O)S(=O)(=O)c2ccc(Cl)cc2)cc1 [Example 35, 4-{[(4-Chloro-benzenesulfonyl)-((R)-2-oxo-azepan-3-yl)-amino]-methyl}-benzoic acid ethyl ester]	90	–
COC(=O)c1ccc(C(C)N([C@@H]2CCCCNC2=O)S(=O)(=O)c2ccc(Cl)cc2)cc1 (stereo partly drawn) [Example 41, 4-{1-[(4-Chloro-benzenesulfonyl)-((R)-2-oxo-azepan-3-yl)-amino]-ethyl}-benzoic acid methyl ester]	200	–
O=C1NCCCC[C@H]1N(Cc1ccc(-c2ncn[nH]2)cc1F)S(=O)(=O)c1ccc(Cl)cc1 [Example 56, 4-Chloro-N-[2-fluoro-4-(2H-[1,2,4]triazol-3-yl)-benzyl]-N-((R)-2-oxo-azepan-3-yl)-benzenesulfonamide]	80	–
COc1ccc(CN([C@@H]2CCCCNC2=O)S(=O)(=O)c2ccc(Cl)cc2)c(F)c1 [Example 68, 4-Chloro-N-(2-fluoro-4-methoxy-benzyl)-N-((R)-2-oxo-azepan-3-yl)-benzenesulfonamide]	120	–
O=C(NC1CC1)c1ccc(CN([C@@H]2CCCCNC2=O)S(=O)(=O)c2ccc(C(F)(F)F)cc2)cc1 [Example 106, N-Cyclopropyl-4-{[((R)-2-oxo-azepan-3-yl)-(4-trifluoromethyl-benzenesulfonyl)-amino]-methyl}-benzamide]	260	–
O=C(NC1CC1)c1ccc(CN([C@@H]2CCCCNC2=O)S(=O)(=O)c2ccc(Br)cc2)cc1 [Example 107, N-Cyclopropyl-4-{[((R)-2-oxo-azepan-3-yl)-(4-bromo-benzenesulfonyl)-amino]-methyl}-benzamide]	290	–
CC1(C)CCNC(=O)C(N(Cc2ccc(C(=O)NC3CC3)cc2)S(=O)(=O)c2ccc(Cl)cc2)C1 (stereo not drawn) [Example 109, 4-{[(4-Chloro-benzenesulfonyl)-(5,5-dimethyl-2-oxo-azepan-3-yl)-amino]-methyl}-N-cyclopropyl-benzamide]	280	–
